Patent US8496963B2, “Oral formulations of glycyl-2-methylprolyl-glutamate” (priority 2007, dated 2013)
Read-outs that look alike come from different tables or passages of the source. Bridge positions count the residues as written; N and C are the ends. Square brackets hold non-standard residues; d marks the D form. Peptide text beside a SMILES is read from it. * marks the point of attachment. Ileψ(thiazoline)Cys = CC[C@H](C)[C@H](N)C1=N[C@H](C(=O)*)CS1; αMeP = C[C@@]1(C(=O)O)CCCN1; dOrn = NCCC[C@@H](N)C(=O)O

Columns and labels:
[1] = system: Caco-2 epithelial membrane; assay: Permeability of G-2MePE and TEER across Caco-2 cells with permeation enhancers; type: in vitro ADME, human
Experimental: The purpose of this study was to determine if permeability enhancers can increase transport of G-2MePE across Caco-2 cell layers.
G-2MePE was added in three or six replicates to the donor sides of Transwells containing Caco-2 cells in the absence or presence of various permeation enhancers (FIG. 4), 1.5 ml transport buffer was added to the receptor side. The Transwells were then left to incubate. […] After each sample was taken, 0.4 ml of fresh HBSS buffer was added to the side of the Transwell from which sample was taken. Subsequently, 0.1 ml donor solution was collected to measure the concentration of the intact G-2MePE. Following each sampling, 0.1 ml of G-2MePE at the same concentration was replaced.
Peptidolysis was terminated by adding the same volume of HCl (0.2M) to each sample. […] Supernatants were collected, dried by Speed Vacuum, diluted with mobile phase and analysed by spectrofluorophotometer. […] Transepthelial electric resistance (TEER) was measured using a Millipore voltage meter at different time points.

[2] = system: Caco-2 epithelial cell layer; assay: Permeability of fluorescein and TEER across Caco-2 cells with permeation enhancers; type: in vitro ADME, human
Experimental: The purpose of this study was to determine the appearance permeation coefficient (Papp) and transepithelial electrical resistance (TEER) across confluent cultures of Caco-2 epithelial cells caused by a typical hydrophilic material.
Integrity of Caco-2 cell cultures was assessed by measuring the TEER and the leakage of ^14C-mannitol or fluorescein across confluent cultures. Inserts with confluent cell cultures and an electrical resistance of greater than 300 Ω/cm^2, were considered appropriate for these studies. Fluorescein or 0.5 μCi/50 μl of ^14C-mannitol was added to the apical cell and incubated for 1-4 hours. The acceptable leakage was considered to be <0.5-1%. 6 inserts with good integrity were chosen and then washed with transport buffer. The medium from all apical and basolateral wells was removed. The cell cultures were washed twice with warm 37° C. transport buffer.
The solution on the transwell receptor side was then replaced with 0.4 ml of fresh HBSS, and we collected 0.1 ml from the donor side (then replaced with 0.1 ml sodium fluorescein at the same concentration). The reaction was terminated from donor side by adding the same volume HCl (0.2M) or by 3:1 Acetonitril/methonal with 2% acetic acid to each sample. […] Supernatants were collected, dried by Speed Vacuum, diluted with mobile phase and the resulting sample was analysed by spectrofluorophotometer. The apparent permeability coefficient was used to compare the permeability between control and treatment groups (FIG. 4). Transepithelial electric resistance (TEER) was measured using a Millipore voltage meter at different time points.

[3] = system: Caco-2 cells; type: in vitro ADME, human; conditions: Caco-2, pH 7.4
Experimental: Fresh medium was replaced every 2-3 days. Cells were cultured at 37° C. for 12-14 days for uptake assay study. The uptake assay study was commenced after cells reached confluency, i.e., after 12-14 days in culture. Each dish was washed with HEPES (pH 7.4). […] The cells were scraped off with a cell scraper into an extraction solution and centrifuged at 20,000 g for 20 min. […] The pellet was diluted by NaOH to determine the protein content by Lowry assay.

[4] = system: Caco-2 cells; assay: Cytotoxicity: sulforhodamine B (SRB) growth inhibition of Caco-2 cells; conditions: read-out: IC50 of G-2MePE, growth of Caco-2 cells
Experimental: (§1) The purpose of this study growth was to determine if GPE and/or G-2MePE can inhibit growth of cells.
(§2) The cells were fixed by TCA and SRB was added to each well. Cell-bound dye was extracted with Tris base buffer to solubilize the dye and the absorbance determined by a plate reader at 570 nm. Inhibition of growth was expressed as relative viability (% control) and the IC50 was calculated from the concentration-response curves after log/probit transformation.

[5] = system: Caco-2 cells; type: in vitro ADME, human
Experimental: The purpose of these studies was to determine the effect of pH on the degradation of G-2MePE by Caco-2 cells.
100 μg/ml G-2MePE was added to the apical side of confluent cultures of Caco-2 cells in different pH conditions. Samples were taken at 0, 15, 30, 45, 60, 90, 120, 150, 180, 210, 240 min later. Samples were centrifuged at 20,000 g for 15 min and 50 μl supernatant was injected to the column of HPLC. […] Peptidolytic activity and half-life of G-2MePE were then determined in different pH condition.

[6] = system: Caco-2 cell monolayer; assay: Stability of GPE and G-2MePE in the presence of Caco-2 cells; type: in vitro ADME, human; conditions: 50-100 μg/ml, HBSS pH 7.4, HPLC
Experimental: The collected samples were extracted by adding 400 μl of 0.04M sulphuric acid into test tubes, each of which contained 50 μl of a sample. The test tubes were left on ice for 5 min and vortexed. The 50 μl of 10% sodium tungstate was added to each tube and the tubes were vortexed immediately and left on ice for 10 min, vortexed again and left on ice for another 10 min. The cells were centrifuged at 20,000 g at 4° C. for 20 min. The supernatant was collected for testing. […] The protein content of samples was measured by Lowry assay.

[7] = system: Caco-2 cells
Experimental: as §1, §2

[8] = in vitro; conditions: human, Caco-2
Experimental: as §1, §2

Structure (SMILES): CCCCCCCCCC(=O)[O-].[Na+] [Sodium caprate]
- permeability of the Caco-2 epithelial membrane to G-2MePE ([1]; EDTA 30 mM, sodium caprate 20 mM, taurocholate 20 and 30 mM, citric acid 30 mM, bacitracin 3.5 mM): significantly increased
- TEER of Caco-2 cell layer ([1]; G-2MePE transport, EDTA 30 mM, sodium caprate 20 mM, taurocholate 20 & 30 mM, citric acid 30 mM): significantly reduced
- relative effect on fluorescein permeability ([2]; 20 mM caprate vs 20 mM taurocholate): greater than the effect of the same concentration of taurocholate
- TEER of Caco-2 cell layer ([2]; fluorescein transport experiment, 3 h, sodium caprate 10 or 20 mM, taurocholate 30 mM, EDTA 40 mM, SDA 1 mM): reduced the TEER
- permeability of the Caco-2 epithelial cell layer to fluorescein ([2]; sodium caprate 10 or 20 mM, taurocholate 30 mM, EDTA 40 mM, SDA 1 mM, 3 h): significantly (P<0.05) increased

Structure (SMILES): C[C@@]1(C(=O)N[C@@H](CCC(=O)O)C(=O)O)CCCN1C(=O)CN [Formulation G-2MePE, Glycyl-2-Methylprolyl Glutamate] (H-Gly-[αMeP]-Glu-OH)
- uptake of G-2MePE by Caco-2 cells [3]: 1.3%
- IC50 ([4]; 24 hours): 4640 µM
- IC50 ([4]; 48 hours): 3660 µM
- IC50 ([4]; 72 hours): 2240 µM
- IC50 ([4]; 96 hours): 1090 µM
- IC50 ([4]; 120 hours): 1010 µM
- pH at which G-2MePE is stable ([5]; Caco-2): ≤ 5.5
- degradation in basic conditions ([5]; Caco-2, pH 7): Moderate degradation

Structure (SMILES): CC[C@H](C)[C@H](N)C1=N[C@H](C(=O)N[C@@H](CC(C)C)C(=O)N[C@H](CCC(=O)O)C(=O)N[C@H](C(=O)N[C@H]2CCCCNC(=O)[C@H](CC(N)=O)NC(=O)[C@@H](CC(=O)O)NC(=O)[C@H](Cc3cnc[nH]3)NC(=O)[C@@H](Cc3ccccc3)NC(=O)[C@H]([C@@H](C)CC)NC(=O)[C@@H](CCCN)NC2=O)[C@@H](C)CC)CS1 [bacitracin] ({Ileψ(thiazoline)Cys}-L[dE]IK[dOrn]I[dF]H[dD]N; lactam 4-C)
- permeability of the Caco-2 epithelial membrane to G-2MePE ([1]; Caco-2): significantly increased

Structure (SMILES): NCC(=O)N1CCC[C@H]1C(=O)N[C@@H](CCC(=O)O)C(=O)O [GPE, glycyl-prolyl-glutarnate]
- metabolites identified in the presence of Caco-2 cells [6]: Four
- IC50 [7]: ≥ 15000 µM
- inhibition at 15 mM [8]: 35%
